In patent US9360486B2, “Allergen fragments” (Biomay AG, priority 2007, dated 2016):

System: Amb a 1-specific T cell lines (TCL)
Assay: T cell epitope mapping of Amb a 1.3: proliferation (3H-thymidine uptake) of TCL stimulated with synthetic peptides
Assay type: cell-based, human
Conditions: for No. positive patients SI > 3 / No. positive patients SI > 5 / % (positive patients SI > 3) / % (positive patients SI > 5): TCL from 48 ragweed pollen-allergic patients, peptide 5 μg/ml; for No. positive patients SI > 3 / No. positive patients SI > 5: 3H-thymidine uptake after 48 hrs; for No. positive patients SI > 3 / % (positive patients SI > 3): stimulation index > 3; for No. positive patients SI > 5 / % (positive patients SI > 5): stimulation index > 5; for T cell activating region recognized by % of patients: classes of prevalence referring to SI>5, 48 TCL
Method in brief: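 Amb a 1-specific TCL from ragweed-allergic patients, raised with ragweed extract or rAmb a 1.3, stimulated 48 h with 121 overlapping 12-mer peptides plus one C-terminal 13-mer (9-residue overlap) at 5 μg/ml. Proliferation by 3H-thymidine uptake; SI against the mean cpm of the ten least stimulating peptides, epitope when SI ≥3.0.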

NETRSLQACEAY (Amb a 1 fragment) [Peptide 5]
No. positive patients SI > 3: 4
No. positive patients SI > 5: 0
% (positive patients SI > 3): 8.3%
% (positive patients SI > 5): 0.0%

NGAIFVTSGSDP (Amb a 1 fragment) [Peptide 109]
reactivity with T cells isolated from allergic individuals: reactivity with T cells
No. positive patients SI > 3: 12
No. positive patients SI > 5: 9
% (positive patients SI > 3): 25.0%
% (positive patients SI > 5): 18.8%

NGAIFVTSGSDPVLTPVQ (Amb a 1 fragment) [Peptide 109-111]
reactivity with T cells isolated from allergic individuals: reactivity with T cells
T cell activating region recognized by % of patients: recognized by 22.9%

NGGLTLMNVKNI (Amb a 1 fragment) [Peptide 43]
No. positive patients SI > 3: 4
No. positive patients SI > 5: 1
% (positive patients SI > 3): 8.3%
% (positive patients SI > 5): 2.1%

NIIDKCWRGKAD (Amb a 1 fragment) [Peptide 9]
No. positive patients SI > 3: 3
No. positive patients SI > 5: 2
% (positive patients SI > 3): 6.3%
% (positive patients SI > 5): 4.2%

NINIHDVKVLPG (Amb a 1 fragment) [Peptide 48]
reactivity with T cells isolated from allergic individuals: reactivity with T cells
No. positive patients SI > 3: 10
No. positive patients SI > 5: 9
% (positive patients SI > 3): 20.8%
% (positive patients SI > 5): 18.8%

NLNQELVVNSDK (Amb a 1 fragment) [Peptide 35]
No. positive patients SI > 3: 1
No. positive patients SI > 5: 1
% (positive patients SI > 3): 2.1%
% (positive patients SI > 5): 2.1%

NMFTDNVDQRMP (Amb a 1 fragment) [Peptide 81]
reactivity with T cells isolated from allergic individuals: reactivity with T cells
No. positive patients SI > 3: 7
No. positive patients SI > 5: 6
% (positive patients SI > 3): 14.6%
% (positive patients SI > 5): 12.5%

NPKEGTLRFAAA (Amb a 1 fragment) [Peptide 26]
No. positive patients SI > 3: 0
No. positive patients SI > 5: 0
% (positive patients SI > 3): 0.0%
% (positive patients SI > 5): 0.0%

NRQALADCAQGF (Amb a 1 fragment) [Peptide 14]
No. positive patients SI > 3: 4
No. positive patients SI > 5: 0
% (positive patients SI > 3): 8.3%
% (positive patients SI > 5): 0.0%

NVAGSSQIWIDH (Amb a 1 fragment) [Peptide 59]
reactivity with T cells isolated from allergic individuals: reactivity with T cells
No. positive patients SI > 3: 11
No. positive patients SI > 5: 8
% (positive patients SI > 3): 22.9%
% (positive patients SI > 5): 16.7%

NVAGSSQIWIDHCSLSKS (Amb a 1 fragment) [Peptide 59-61]
reactivity with T cells isolated from allergic individuals: reactivity with T cells
T cell activating region recognized by % of patients: recognized by 58.3%

NYDRWGTYAIGG (Amb a 1 fragment) [Peptide 89]
reactivity with T cells isolated from allergic individuals: reactivity with T cells
No. positive patients SI > 3: 11
No. positive patients SI > 5: 6
% (positive patients SI > 3): 22.9%
% (positive patients SI > 5): 12.5%

PDDQIKKNVLAR (Amb a 1 fragment) [Peptide 98]
reactivity with T cells isolated from allergic individuals: reactivity with T cells
No. positive patients SI > 3: 13
No. positive patients SI > 5: 8
% (positive patients SI > 3): 27.1%
% (positive patients SI > 5): 16.7%

PDDQIKKNVLARTGT (Amb a 1 fragment) [Peptide 98-99]
reactivity with T cells isolated from allergic individuals: reactivity with T cells
T cell activating region recognized by % of patients: recognized by 16.7%

PILRQASDGDTI (Amb a 1 fragment) [Peptide 55]
No. positive patients SI > 3: 3
No. positive patients SI > 5: 1
% (positive patients SI > 3): 6.3%
% (positive patients SI > 5): 2.1%

PLWIIFKNDMVI (Amb a 1 fragment) [Peptide 31]
reactivity with T cells isolated from allergic individuals: reactivity with T cells
No. positive patients SI > 3: 11
No. positive patients SI > 5: 10
% (positive patients SI > 3): 22.9%
% (positive patients SI > 5): 20.8%

PSVNETRSLQAC (Amb a 1 fragment) [Peptide 4]
No. positive patients SI > 3: 4
No. positive patients SI > 5: 1
% (positive patients SI > 3): 8.3%
% (positive patients SI > 5): 2.1%

PTILCQGNRFLA (Amb a 1 fragment) [Peptide 94]
reactivity with T cells isolated from allergic individuals: reactivity with T cells
No. positive patients SI > 3: 11
No. positive patients SI > 5: 9
% (positive patients SI > 3): 22.9%
% (positive patients SI > 5): 18.8%
T cell activating region recognized by % of patients: recognized by 18.8%

PVQSAGMIPAEP (Amb a 1 fragment) [Peptide 114]
reactivity with T cells isolated from allergic individuals: reactivity with T cells
No. positive patients SI > 3: 8
No. positive patients SI > 5: 5
% (positive patients SI > 3): 16.7%
% (positive patients SI > 5): 10.4%

PVQSAGMIPAEPGEA (Amb a 1 fragment) [Peptide 114-115]
reactivity with T cells isolated from allergic individuals: reactivity with T cells
T cell activating region recognized by % of patients: recognized by 35.4%

QACEAYNIIDKC (Amb a 1 fragment) [Peptide 7]
No. positive patients SI > 3: 1
No. positive patients SI > 5: 0
% (positive patients SI > 3): 2.1%
% (positive patients SI > 5): 0.0%

QELVVNSDKTID (Amb a 1 fragment) [Peptide 36]
reactivity with T cells isolated from allergic individuals: reactivity with T cells
No. positive patients SI > 3: 14
No. positive patients SI > 5: 12
% (positive patients SI > 3): 29.2%
% (positive patients SI > 5): 25.0%

QELVVNSDKTIDGRG (Amb a 1 fragment) [Peptide 36-37]
reactivity with T cells isolated from allergic individuals: reactivity with T cells
T cell activating region recognized by % of patients: recognized by 25.0%

QGFAKGTYGGKW (Amb a 1 fragment) [Peptide 17]
No. positive patients SI > 3: 2
No. positive patients SI > 5: 1
% (positive patients SI > 3): 4.2%
% (positive patients SI > 5): 2.1%
